“Also recorded” adds a separate entry of the source. Structures can show the parent of a compound that is named as a salt.
Columns and labels:
[1] = cited from earlier work
[2] = tested on: Pseudomonas aeruginosa NC-5 strain; assay: Protective effect against experimentally infected mice, two oral administrations; format: in vivo, mice infected with Pseudomonas aeruginosa
Procedure: c. Mice (one group included five mice) were infected with Pseudomonas aeruginosa NC-5 strain via the intraperitoneal route and the test substance was orally administered twice, i. e., immediately after challenge of the test organism and after 2 hours.

[3] = tested on: Escherichia coli 31 strain; assay: MIC distribution, clinical isolated strains; format: cell-based; settings: of 31 strains; for number of strains with MIC 1.56: MIC 1.56 μ/ml; for number of strains with MIC 12.5: MIC 12.5 μ/ml; for number of strains with MIC 25: MIC 25 μ/ml; for number of strains with MIC 50: MIC 50 μ/ml; for number of strains with MIC 100: MIC 100 μ/ml; for number of strains with MIC >100: MIC >100 μ/ml
Source text: (Escherichia coli 31 strain)
(§1) It is clear from the results shown in the above tables, as regards the antibacterial activities against clinical isolated strains, the compounds of this invention show quite high activity against not only Pseudomonas aeruginosa but also against Klebsiella as compared with carbenicillin

male Sprague-Dawley rats [4] = assay: Nephrotoxicity after 1 week subcutaneous injection; format: in vivo; settings: 7 days
Procedure: b. Test antibiotics were administered to male Sprague-Dawley rats by subcutaneous injection daily for 7 days. After seven days, animals were sacrificed and estimated for organ weight and serum urea-nitrogen including visual studies of kidney.

Klebsiella 78 strain = assay: MIC distribution, clinical isolated strains; format: cell-based; settings: of 78 strains; for number of strains with MIC 1.56: MIC 1.56 μ/ml; for number of strains with MIC 12.5: MIC 12.5 μ/ml; for number of strains with MIC 25: MIC 25 μ/ml; for number of strains with MIC 50: MIC 50 μ/ml; for number of strains with MIC 100: MIC 100 μ/ml; for number of strains with MIC 400: MIC 400 μ/ml; for number of strains with MIC >400: MIC >400 μ/ml
Source text: as §1

[5] = tested on: Pseudomonas aeruginosa 35 strain; assay: MIC distribution, clinical isolated strains; format: cell-based; settings: of 35 strains; for number of strains with MIC 1.56: MIC 1.56 μ/ml; for number of strains with MIC 12.5: MIC 12.5 μ/ml; for number of strains with MIC 25: MIC 25 μ/ml; for number of strains with MIC 50: MIC 50 μ/ml; for number of strains with MIC 100: MIC 100 μ/ml; for number of strains with MIC >100: MIC >100 μ/ml
Source text: (Pseudomonas aeruginosa 35 strain)
as §1

[6] = tested on: Pseudomonas aeruginosa NC-5 strain; assay: Protective effect against experimentally infected mice, one subcutaneous administration; format: in vivo, mice infected with Pseudomonas aeruginosa; settings: s.c. once
Source text: a. Mice (one group included five mice) were infected with pseudomonas aeruginosa NC-5 strain the intraperitoneal route and a solution prepared by dissolving the test antibiotics in sterilized distilled water was once administered by subcutaneous injection immediately after challenge of the test organism and then the numbers of living mice were inspected. […] (The figures shown in Tables VII-IX have the same meaning).

Klebsiella genus = settings: background; cited from earlier work
[7] = tested on: Pseudomonas aeruginosa NC-5 strain; assay: Protective effect against experimentally infected mice, three subcutaneous administrations; format: in vivo, mice infected with Pseudomonas aeruginosa; settings: s.c.
Procedure: b. Mice (one group included five mice) were infected with pseudomonas aeruginosa NC-5 strain via intraperitoneal route and a solution prepared by dissolving the test substance in sterilized distilled water was administered by subcutaneous injection three times, i. e., immediately after challenge of the test organism, after 2 hours, and after 4 hours.

male dd-N mice = assay: Acute toxicity (minimum lethal dose); format: in vivo
Source text: a. The minimum lethal doses (MLD) when the compound of this invention was intravenously and subcutaneously administered to male dd-N mice are shown in Table X.

male Sprague-Dawley rats [8] = assay: Acute nephrotoxicity in combination with glycerol and furocemide in rats; format: in vivo; settings: for Serum urea nitrogen: with glycerol 4 ml/Kg of 50% and furocemide 50 mg/Kg s.c., 48 hours; for serum urea nitrogen relative to control group (in words): with glycerol and furocemide
Procedure: c. Glycerol (50%, 4 ml/kg), furocemide (50 mg/kg) and test actibiotics were injected subcutaneously in male Sprague-Dawley rats. […] Animals of each group were sacrificed 48 hours later to estimate serum urea-nitrogen values.

[9] = tested on: Proteus mirabilis 1287 strain; assay: Protective effect against experimentally infected mice, one subcutaneous administration; format: in vivo, mice infected with Proteus mirabilis; settings: s.c. once, 2 hours after challenge
Procedure: d. Mice (one group included five mice) were infected with Proteus mirabilis 1287 strain via the intraperitoneal route and a solution prepared by dissolving the test antiobiotics in sterilized distilled water was once administered by subcutaneous injection 2 hours after of challenge of the test organism.

gram negative bacteria = settings: background; cited from earlier work
[10] = Water solubility and pH of aqueous solution; format: physicochemical; settings: 250 mg/ml in water
Procedure: As the compounds of this invention are easily soluble in water, the compound can be clinically used as an agent for parenteral administration such as an agent for intravenous injection and an agent for intramuscular injection. For example, when sodium D(-)-6-[α-(p-hydroxyphenyl)-α-(4-oxo-4H-thiopyran-3-yl-carboxanido acetamido]penicillanate is dissolved in water, the pH of the solution is about 5.8 (250 mg/ml).

Stability of di-hydrate = format: physicochemical
Source text: In addition, if the water-containing organic solvent solution keeps up its homogeneity, an organic solvent immiscible with water such as methylene chloride, chloroform, etc., may be added to the solution.

male Sprague-Dawley rats [11] = settings: small dose subcutaneously; cited from earlier work

CC1(C)S[C@@H]2[C@H](NC(=O)[C@H](N)c3ccc(O)cc3)C(=O)N2[C@H]1C(=O)O [Amoxicillin, α-amino-p-hydroxybenzylpenicillin]
concentration in blood by oral administration [1]: high concentration in blood by oral administration
number of living mice / number of mice inspected ([2]; 25 × 2 mg): 0/5
number of living mice / number of mice inspected ([2]; 50 × 2 mg): 0/5
number of living mice / number of mice inspected ([2]; 100 × 2 mg): 0/5

CC1(C)S[C@@H]2[C@H](NC(=O)C(C(=O)O)c3ccccc3)C(=O)N2[C@H]1C(=O)O (stereo partly drawn) [Carbenicillin, α-carboxybenzylpenicillin]
number of strains with MIC 1.56 [3]: 1
number of strains with MIC […] ([3]; MIC 3.13 μ/ml): 7
number of strains with MIC […] ([3]; MIC 6.25 μ/ml): 8
number of strains with MIC 12.5 [3]: 6
number of strains with MIC 25 [3]: 0
number of strains with MIC 50 [3]: 0
number of strains with MIC 100 [3]: 0
number of strains with MIC >100 [3]: 9
Kidney weights (male Sprague-Dawley rats [4]; 1000 mg/Kg/day sc): 2.53 g
Serum urea-N (male Sprague-Dawley rats [4]; 1000 mg/Kg/day sc): 24.0 mg/dL
renal findings (male Sprague-Dawley rats [4]; 1000 mg/Kg/day sc): no abnormal findings
number of strains with MIC 1.56 (Klebsiella 78 strain): 1
number of strains with MIC […] (Klebsiella 78 strain; MIC 3.13 μ/ml): 1
number of strains with MIC […] (Klebsiella 78 strain; MIC 6.25 μ/ml): 1
number of strains with MIC 12.5 (Klebsiella 78 strain): 0
number of strains with MIC 25 (Klebsiella 78 strain): 0
number of strains with MIC 50 (Klebsiella 78 strain): 8
number of strains with MIC 100 (Klebsiella 78 strain; first column headed 100): 8
number of strains with MIC 100 (Klebsiella 78 strain; second column headed 100): 16
number of strains with MIC 400 (Klebsiella 78 strain): 16
number of strains with MIC >400 (Klebsiella 78 strain): 27
number of strains with MIC 1.56 [5]: 0
number of strains with MIC […] ([5]; MIC 3.13 μ/ml): 0
number of strains with MIC […] ([5]; MIC 6.25 μ/ml): 0
number of strains with MIC 12.5 [5]: 0
number of strains with MIC 25 [5]: 3
number of strains with MIC 50 [5]: 4
number of strains with MIC 100 [5]: 8
number of strains with MIC >100 [5]: 20
number of living mice / number of mice inspected ([6]; 15 mg): 1/5
number of living mice / number of mice inspected ([6]; 30 mg): 2/5
number of living mice / number of mice inspected ([6]; 60 mg): 4/5
activity against the Klebsiella genus (in words) (Klebsiella genus): weak antibacterial activity against the Klebsiella genus
number of living mice / number of mice inspected ([7]; 2.5 × 3 mg): 2/5
number of living mice / number of mice inspected ([7]; 5 × 3 mg): 0/5
number of living mice / number of mice inspected ([7]; 10 × 3 mg): 5/5
MLD (male dd-N mice; i.v.): 7000 mg/kg
MLD (male dd-N mice; s.c.): > 10000 mg/kg
Serum urea nitrogen (male Sprague-Dawley rats [8]; 1000 mg/Kg s.c.): 29.7 ± 7.2 mg/dL
nephrotoxicity (in words) (male Sprague-Dawley rats [8]; rat, in vivo): no nephrotoxicity resulted
serum urea nitrogen relative to control group (in words) (male Sprague-Dawley rats [8]): no remarkable difference
number of living mice / number of mice inspected ([9]; 1.25 mg): 0/5
number of living mice / number of mice inspected ([9]; 2.5 mg): 1/5
number of living mice / number of mice inspected ([9]; 5 mg): 2/5
number of living mice / number of mice inspected ([9]; 10 mg): 4/5

O=C(Cc1cccs1)N[C@@H]1C(=O)N2C(C(=O)[O-])=C(C[n+]3ccccc3)CS[C@H]12 [Cephaloridine]
Serum urea nitrogen (male Sprague-Dawley rats [8]; 500 mg/Kg s.c.): 50.7 ± 13.6 mg/dL
serum urea nitrogen relative to control group (in words) (male Sprague-Dawley rats [8]): remarkable increase of serum urea nitrogen

CC1(C)S[C@@H]2[C@H](NC(=O)[C@H](N)C3=CCC=CC3)C(=O)N2[C@H]1C(=O)O [Epicillin, 6-[D-2-amino-2-(1,4-cyclohexadien-1-yl)acetamido]penicillanic acid]
activity to gram negative bacteria (in words) (gram negative bacteria): selective antibacterial activity to, in particular, gram negative bacteria

CC1(C)S[C@@H]2[C@H](NC(=O)[C@H](NC(=O)c3csccc3=O)c3ccc(O)cc3)C(=O)N2[C@H]1C(=O)O [Example 3, α-(4-oxo-4H-thiopyran-3-carboxamido)-p-hydroxybenzylpenicillin sodium salt]
number of strains with MIC 1.56 [3]: 2
number of strains with MIC […] ([3]; MIC 3.13 μ/ml): 1
number of strains with MIC […] ([3]; MIC 6.25 μ/ml): 8
number of strains with MIC 12.5 [3]: 9
number of strains with MIC 25 [3]: 2
number of strains with MIC 50 [3]: 0
number of strains with MIC 100 [3]: 0
number of strains with MIC >100 [3]: 9
Kidney weights (male Sprague-Dawley rats [4]; 1000 mg/Kg/day sc): 2.30 g
Serum urea-N (male Sprague-Dawley rats [4]; 1000 mg/Kg/day sc): 20.3 mg/dL
number of strains with MIC 1.56 (Klebsiella 78 strain): 0
number of strains with MIC […] (Klebsiella 78 strain; MIC 3.13 μ/ml): 0
number of strains with MIC […] (Klebsiella 78 strain; MIC 6.25 μ/ml): 2
number of strains with MIC 12.5 (Klebsiella 78 strain): 17
number of strains with MIC 25 (Klebsiella 78 strain): 30
number of strains with MIC 50 (Klebsiella 78 strain): 1
number of strains with MIC 100 (Klebsiella 78 strain; first column headed 100): 1
number of strains with MIC 100 (Klebsiella 78 strain; second column headed 100): 7
number of strains with MIC 400 (Klebsiella 78 strain): 4
number of strains with MIC >400 (Klebsiella 78 strain): 16
number of strains with MIC 1.56 [5]: 2
number of strains with MIC […] ([5]; MIC 3.13 μ/ml): 5
number of strains with MIC […] ([5]; MIC 6.25 μ/ml): 6
number of strains with MIC 12.5 [5]: 6
number of strains with MIC 25 [5]: 2
number of strains with MIC 50 [5]: 5
number of strains with MIC 100 [5]: 2
number of strains with MIC >100 [5]: 7
number of living mice / number of mice inspected ([6]; 15 mg): 2/5
number of living mice / number of mice inspected ([6]; 30 mg): 3/5
number of living mice / number of mice inspected ([6]; 60 mg): 5/5
number of living mice / number of mice inspected ([7]; 2.5 × 3 mg): 5/5
number of living mice / number of mice inspected ([7]; 5 × 3 mg): 5/5
number of living mice / number of mice inspected ([7]; 10 × 3 mg): 5/5
MLD (male dd-N mice; i.v.): 3500 mg/kg
MLD (male dd-N mice; s.c.): 7000 mg/kg
Serum urea nitrogen (male Sprague-Dawley rats [8]; 1000 mg/Kg s.c.): 23.3 ± 2.5 mg/dL
pH of the solution [10]: about 5.8
number of living mice / number of mice inspected ([2]; 25 × 2 mg): 2/5
number of living mice / number of mice inspected ([2]; 50 × 2 mg): 3/5
number of living mice / number of mice inspected ([2]; 100 × 2 mg): 5/5
number of living mice / number of mice inspected ([9]; 1.25 mg): 1/5
number of living mice / number of mice inspected ([9]; 2.5 mg): 2/5
number of living mice / number of mice inspected ([9]; 5 mg): 4/5
number of living mice / number of mice inspected ([9]; 10 mg): 3/5

CC1(C)S[C@@H]2[C@H](NC(=O)[C@H](NC(=O)c3csccc3=O)c3ccc(O)cc3)C(=O)N2[C@H]1C(=O)O [Example 27, D(-)-6-[p-hydroxy-phenyl-α-(4-oxo-4H-thiopyran-3-ylcarboxamido)acetamido]penicillanic acid di-hydrate]
stability (Stability of di-hydrate): pure and stable

NC[C@H]1O[C@H](O[C@H]2[C@H](O)[C@@H](O[C@H]3O[C@H](CO)[C@@H](O)[C@H](N)[C@H]3O)[C@H](N)C[C@@H]2N)[C@H](O)[C@@H](O)[C@@H]1O [Kanamycin]
Kidney weights (male Sprague-Dawley rats [4]; 500 mg/kg/day sc): 3.52 g
Serum urea-N (male Sprague-Dawley rats [4]; 500 mg/kg/day sc): 70.7 mg/dL
renal findings (male Sprague-Dawley rats [4]; 500 mg/kg/day sc): renal hypertropy, ischemia of renal cortex; also recorded: abnormal increase of serum urea-nitrogen values; also recorded: severe renal impairement

OCC(O)CO [glycerol]
renal impairment (male Sprague-Dawley rats [11]): mild and reversible renal impairment

— US3939150A, “Penicillin derivatives” (priority 1973, dated 1976)
